# Data as given in patent US12433870B2, “Supramolecular photoprotection of a photosensitizer” (Northwestern University, priority 2019, dated 2025).
# Entries after “also recorded” stand apart in the source; their conditions may differ.
# How the values were obtained:
# [1] = Solubility in water / PBS buffer; type: physicochemical; details: H2O
# [2] = Detection of singlet oxygen (ADPA chemical method, methylene blue reference); type: physicochemical; details: H2O, 20 μM, 630 nm, 50 mW, 20 min
# Protocol: Singlet oxygen (^1O2) quantum-yield measurements were conducted by a chemical method. The disodium salt of 9.10-anthracenedipropionic acid (ADPA) was used as singlet oxygen detection reagent with methylene blue used as a reference (Φt=0.53). In this experiment, ADPA (0.1 μmol) was added to the H2O solution of ExBox^4+⊃DPP (20 μM) with a laser irradiation (630 nm, 50 mW) for 20 min, followed by quantification of ^1O2 by the absorbance intensity change (UV-3600 Shimadzu spectrophotometer) at 380 nm of ADPA. The calculation of ^1O2 quantum yield is based on the equality ΦΔ=(ΔAs/[…])Φr. ΔAs is the absorption change of detected photosensitizer, ΔAr is the absorption change of referenced photosensitizer and Φ^r is the quantum yield of singlet oxygen of referenced photosensitizer (methylene blue).
# (§1) ADPA (0.1 μmol) was added to the H2O solution of DPPH2^+ (20 μM) with a laser irradiation (630 nm, 50 mW) for 20 min, followed by quantification of the ^1O2 by the absorbance intensity change (UV-3600 Shimadzu spectrophotometer) at 380 nm of ADPA. The calculation of the ^1O2 quantum yield is based on the equality ΦΔ=(ΔAs/ΔAr)Φr where ΔAs is the absorption change of detected photosensitizer, ΔAr is the absorption change of referenced photosensitizer and Φr is the quantum yield of singlet oxygen of referenced photosensitizer (methylene blue). Measured ^1O2 quantum yield of DPPH2^2+ is 0.38 in H2O.
# as §1, with “acetone” for “H2O”, “DPP” for “DPPH2^+”, “DPP” for “DPPH2^2+”, “0.43” for “0.38”, “acetone.” for “H2O.”
# A2780 cells [3] = assay: Annexin V FITC/7-AAD apoptosis assay; type: cell-based; details: for intact cells: dark conditions
# Protocol: A2780 cells (5×10^5 cells/mL, 100 μL) were seeded in each well of a Black 96-well plate and incubated with 5 or 10 μM PBS solution of ExBox^4+⊃DPP for 12 h. After incubation, cells were washed with 1×PBS, added with 100 μL of DMEM and immediately irradiated with visible light using Max-303 Xenon Light Source (385-740 nm, Asahi Spectra) at 25 and 50 mW light intensities for 10 min. After irradiation, cells were incubated for an additional 3 h prior to being trypsinized and recovered for annexin V staining. 50 μL of Annexin V solution (1:50 FITC Annexin V in Annexin V staining buffer) was added to cells and was incubated at room temperature for 20 min. 500 μL of 1×PBS was then added to cells, which were centrifuged at 400 ref for 5 min, and the supernatant was discarded. Cells were resuspended in 100 μL of 1:20 7-AAD in cell staining buffer and were incubated for 10 min prior to analysis on a BD Fortessa flow cytometer. Cells were first gated for singlet events using FSC-A vs. FSC-H, after which debris was excluded used FSC-A vs. SSC-A. All remaining events were gated as live, dead, or apoptotic based on annexin V staining vs. 7-AAD staining, with dead cells staining 7-AAD+, live cells staining as 7-AAD- and annexin-V-, and apoptotic cells staining 7-AAD-annexin-V+. Cells without irradiation were used as controls.
# A2780 cells [4] = assay: In vitro PDT efficacy, MTT assay after visible light irradiation; type: cell-based, human
# Protocol: (§2) A2780 cells (human ovarian cancer cell line) and MCF-7 cells (human breast adenocarcinoma cell line) obtained from Sigma-Aldrich and American Type Culture Collection (ATCC, Rockville, MD, USA), respectively were utilized for cell culture experiments. These cells were cultured in Dulbecco's Modified Eagle's Medium (DMEM) supplemented with 10% fetal bovine serum (FBS), penicillin (100 IU/mL) and streptomycin (100 μg/mL) at 37° C. in the presence of air (95%) and CO2 (5%).
# (§3) A2780 or MCF-7 cells (2×10^5 cells/mL, 100 μL) were seeded in each well of a black 96-well plate. Stock solution of ExBox^4+⊃DPP in PBS (1 mM, 10 μL) was added to each well to achieve working concentrations and incubated for 12 h. After incubation, wells were washed with PBS, added with 100 μL of DMEM and immediately irradiated with visible light using Max-303 Xenon Light Source (385-740 nm, Asahi Spectra) at different light intensities (5-50 mW) for 1 to 15 min. Following irradiation, cells were incubated overnight and then added with MTT (5 mg/mL in PBS, 10 μL). After 4 h incubation with MTT, media from each well was pipetted out, formazan crystals deposited on the plate were dissolved in 200 μL of Me2SO, and the absorbance of each well was measured using a microplate reader at 560 nm. All the samples were analyzed in quadruplicates.
# (§4) The percentage cell viability was calculated using the following formula: % cell viability=(OD of treated sample/OD of untreated sample)*100.
# A2780 cells [5] = assay: MTT assay, in vitro cytotoxicity in the dark; type: cell-based, human; details: 0.625-100 μM in PBS
# Protocol: as §2
# as §3, with “After incubation, wells were washed with PBS, added with 100 μL of DMEM and immediately irradiated with visible light using Max-303 Xenon Light Source (385-740 nm, Asahi Spectra) at different light intensities (5-50 mW) for 1 to 15 min.” left out
# as §4
# MCF-7 cells = assay: MTT assay, in vitro cytotoxicity in the dark; type: cell-based, human; details: 0.625-100 μM in PBS
# Protocol: as §2
# as §3, with “After incubation, wells were washed with PBS, added with 100 μL of DMEM and immediately irradiated with visible light using Max-303 Xenon Light Source (385-740 nm, Asahi Spectra) at different light intensities (5-50 mW) for 1 to 15 min.” left out
# as §4
smiles,measurement,setting,value
C1=Cc2nc1cc1ccc([nH]1)c(-c1ccccc1)c1nc(cc3ccc([nH]3)c2-c2ccccc2)C=C1.c1cc2ccc1C[n+]1ccc(cc1)-c1ccc(cc1)-c1cc[n+](cc1)Cc1ccc(cc1)C[n+]1ccc(cc1)-c1ccc(cc1)-c1cc[n+](cc1)C2 [ExBox^4+⊃DPP],solubility in H2O,[1],soluble in H2O
same,singlet oxygen generation upon photoexcitation,[2],did not generate any singlet oxygen; also recorded: ^1O2 was not generated
same,intact cells,A2780 cells [3]; 5 μM,79%
same,apoptotic cells,"A2780 cells [3]; 10 μM versus 5 μM, 0.078 or 0.156 Jcm^−2 light dose, 3 h post irradiation",a smaller number of apoptotic cells
same,intact cells,A2780 cells [3]; 10 μM,72%
same,killing of A2780 cells,"A2780 cells [4]; 10 μM, 10 min visible light irradiation, 0.078 and 0.156 J cm^−2",> 95%
same,irradiation time to kill >90% A2780 cells,"A2780 cells [4]; 0.078 J cm^−2 light dose, 5 μM",10 min
same,killing of A2780 cells at other concentrations,"A2780 cells [4]; 0.1, 0.05 and 0.01 μM, 10 min irradiation, 0.078 and 0.156 J cm^−2",less efficient
same,irradiation time to kill >90% of cells,"A2780 cells [4]; 0.156 J cm^−2 light dose, 10 μM",2 min
same,effect on cell viability (MTT),"A2780 cells [4]; 1.25 and 0.625 μM, light doses 0.078 and 0.156 J cm^−2",almost no effect on cell viability
same,A2780 cell-death (MTT),"A2780 cells [4]; 2.5, 5 and 10 μM, light doses 0.078 and 0.156 J cm^−2",> 90%
same,efficacy at light dose 0.032 J cm^−2 (MTT),A2780 cells [4]; light dose 0.032 J cm^−2,efficacious only at 5 and 10 μM concentrations
same,effect on cell viability (MTT),"A2780 cells [4]; light dose, same concentrations",no effect on cell viability
same,cell viability in the dark,A2780 cells [5],> 95%
same,cell viability in the dark,MCF-7 cells,> 95%
